System: 855422-203-R-J1-PDC complex spheroid viability
Test: Anticancer human tumor 855422-203-R-J1-PDC patient-derived bladder carcinoma cell line growth inhibition [POLQ]
Settings: for IC50: curve of first compound; for viability, T/C: stronger effect = lower value
Protocol: Multicellular complex tumor spheroid response to Polymerase (POL) inhibitors (novobiocin, ART-558, RP6685) in combination with a variety of drugs and investigational agents in selected tumor cell lines
The POL inhibitors (novobiocin, ART-558, and RP6685) were evaluated both individually and in combination with standard of care and investigational anticancer small molecules within a complex spheroid model of solid tumors. . Complex spheroids include a stromal component modeled by human endothelial cells (HUVEC) and fibroblasts modeled by human mesenchymal stem cells (MSCs). The concentration ranges selected for each drug and investigational agent were based upon clinically achievable concentrations if the clinical Cmax of the agent was known.
Compounds. The drugs and investigational agents: novobiocin (NSC847541), ART-558 (NSC835418), RP-6685 (NSC848927), peposertib (NSC802822), ceralasertib (NSC780249), elimusertib (NSC800525), camonsertib (NSC841442), AZD-1390 (NSC803789), olaparib (NSC753686), talazoparib (NSC767125), rucaparib (NSC756644), sotorasib (NSC818433), MRTX-1133 (NSC836407), SN-38 (NSC673596), topotecan (NSC609699), epotoside (NSC141540), doxorubicin (NSC123127), gemcitabine (NSC613327), 5-fluorouracil (NSC19893), paclitaxel (NSC125973), vemurafenib (NSC761431), MSA-2 (NSC828583), SN-011 (NSC837082), adavosertib (NSC754352), prexasertib (NSC758257), carboplatin (NSC241240) and oxaliplatin (NSC266046), were obtained from the National Cancer Institute (NCI) Developmental Therapeutics Program Chemical Repository (21). The FDA-approved anticancer drug set is available from the Developmental Therapeutics Program at https://dtp.cancer.gov/organization/dscb/obtaining/. […] The stock solutions were prepared in dimethyl sulfoxide (DMSO, Sigma-Aldrich, St. Louis, MO, cat. D2650), except for the platinum compounds which were prepared in saline (Quality Biological, Gaithersburg, MD, cat. 114-055-101), at 800-fold the tested concentration and stored at -70 degrees C prior to their use. All drugs and investigational agents were tested over a range starting from a high concentration at or near the clinical Cmax and decreasing in half-log increments. If the clinical Cmax for an agent had not been determined, the highest concentration tested was 10 microM, except for SN-38, which was tested at a high concentration of 1 microM.
Cell Culture. All cells were maintained in an incubator at 37 degrees C and 5% CO2 with 95% humidity. The PDC lines were cultured according to standard operating procedures established by the NCI PDMR (https://pdmr.cancer.gov). Table 3 of the manuscript, lists the cell lines along with the number of the three cell types plated to form the mct-spheroids and media for tumor cell growth. After thawing, all PDC lines, except 997537-175-T-J1-PDC and 415267-285-R-J2-PDC, were cultured in Matrigel-coated flasks prepared with a working solution of 1X Ham's F-12 nutrient mix, without supplementation (Thermo Fisher Scientific, cat. 11765054), 100 U/mL penicillin-streptomycin (Thermo Fisher Scientific, cat. 15140122), and 2.5% Matrigel (Corning Inc., Corning, NY, cat. 354248) for the first three passages. The two PDC lines 997537-175-T-J1-PDC and 415267-285-R-J2-PDC were cultured on uncoated flasks. The 857933-349-R-J2-PDC line was cultured in 6C/Colon 1B media containing advanced DMEM/F-12 (Thermo Fisher Scientific, cat. 12634028), 10 mM HEPES (Thermo Fisher Scientific, cat. 15630080), 1X GlutaMAX supplement (Thermo Fisher Scientific, cat. 35050061), 0.1 mg/mL primocin (InvivoGen, San Diego, CA, cat. ant-pm-2), 10% defined fetal bovine serum, heat inactivated (HyClone Laboratories Inc., Logan, UT, cat. SH30070.03HI), 50% L-WRN conditioned media (ATCC, cat. CRL-3276), 1.25 mM N-Acetyl-L-cysteine (Sigma-Aldrich, cat. A9165), 10 mM nicotinamide (Sigma-Aldrich, cat. N0636), 1X B-27 supplement (Thermo Fisher Scientific, cat. 17504044), 1X N-2 supplement (Thermo Fisher Scientific, cat. […]

[1] = second compound 0.0316 µM, first compound 0.0316 µM
[2] = second compound 0.0316 µM, first compound 0.1 µM
[3] = second compound 0.0316 µM, first compound 0.316 µM
[4] = second compound 0.0316 µM, first compound 1 µM
[5] = second compound 0.0316 µM, first compound 3.16 µM
[6] = second compound 0.0316 µM, first compound 10 µM
[7] = second compound 0.1 µM, first compound 0.0316 µM
[8] = second compound 0.1 µM, first compound 0.1 µM
[9] = second compound 0.1 µM, first compound 0.316 µM
[10] = second compound 0.1 µM, first compound 1 µM
[11] = second compound 0.1 µM, first compound 3.16 µM
[12] = second compound 0.1 µM, first compound 10 µM
[13] = second compound 0.316 µM, first compound 0.0316 µM
[14] = second compound 0.316 µM, first compound 0.1 µM
[15] = second compound 0.316 µM, first compound 0.316 µM
[16] = second compound 0.316 µM, first compound 1 µM
[17] = second compound 0.316 µM, first compound 3.16 µM
[18] = second compound 0.316 µM, first compound 10 µM
[19] = second compound 1 µM, first compound 0.0316 µM
[20] = second compound 1 µM, first compound 0.1 µM
[21] = second compound 1 µM, first compound 0.316 µM
[22] = second compound 1 µM, first compound 1 µM
[23] = second compound 1 µM, first compound 3.16 µM
[24] = second compound 1 µM, first compound 10 µM
[25] = second compound 3.16 µM, first compound 0.0316 µM
[26] = second compound 3.16 µM, first compound 0.1 µM
[27] = second compound 3.16 µM, first compound 0.316 µM
[28] = second compound 3.16 µM, first compound 1 µM
[29] = second compound 3.16 µM, first compound 3.16 µM
[30] = second compound 3.16 µM, first compound 10 µM
[31] = second compound 10 µM, first compound 0.0316 µM
[32] = second compound 10 µM, first compound 0.1 µM
[33] = second compound 10 µM, first compound 0.316 µM
[34] = second compound 10 µM, first compound 1 µM
[35] = second compound 10 µM, first compound 3.16 µM
[36] = second compound 10 µM, first compound 10 µM
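Note: spheroids exposed to compounds for seven days before readout.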

`COc1cccc2c1C(=O)c1c(O)c3c(c(O)c1C2=O)CC(O)(C(=O)CO)CC3OC1CC(N)C(O)C(C)O1` (centres undefined) + COC1C(OC(N)=O)C(O)C(Oc2ccc3c(O)c(NC(=O)c4ccc(O)c(CC=C(C)C)c4)c(=O)oc3c2C)OC1(C)C was tested, and the IC50 (second compound 0.0316 µM) was < 31.6 nM, the IC50 (second compound 0.1 µM) was < 31.6 nM and the IC50 (second compound 0.316 µM) was < 31.6 nM. The IC50 (second compound 1 µM) was < 31.6 nM, the IC50 (second compound 3.16 µM) was < 31.6 nM and the IC50 (second compound 10 µM) was < 31.6 nM. The viability, T/C [1] was 12.4%, the viability, T/C [2] was 11.1% and the viability, T/C [3] was 1.99%. It also gave a viability, T/C [4] of 0.29%, a viability, T/C [5] of 0.38% and a viability, T/C [6] of 1.85%. The viability, T/C [7] was 15.1%, the viability, T/C [8] was 10.9% and the viability, T/C [9] was 3.53%. The viability, T/C [10] was 0.21%, the viability, T/C [11] was 0.32% and the viability, T/C [12] was 1.27%. It also gave a viability, T/C [13] of 14.5%, a viability, T/C [14] of 10.1% and a viability, T/C [15] of 1.84%. It also gave a viability, T/C [16] of 0.63%, a viability, T/C [17] of 0.37% and a viability, T/C [18] of 1.74%. It also gave a viability, T/C [19] of 18.5%, a viability, T/C [20] of 10.4% and a viability, T/C [21] of 2.23%. The viability, T/C [22] was 0.32%, the viability, T/C [23] was 0.3% and the viability, T/C [24] was 2.92%. The viability, T/C [25] was 15.4%, the viability, T/C [26] was 10.4% and the viability, T/C [27] was 2.63%. For the same compound, the viability, T/C [28] was 0.31%, the viability, T/C [29] was 0.58% and the viability, T/C [30] was 1.48%. It also gave a viability, T/C [31] of 16.2%, a viability, T/C [32] of 9.82% and a viability, T/C [33] of 2.61%. It also gave a viability, T/C [34] of 0.29%, a viability, T/C [35] of 0.47% and a viability, T/C [36] of 1.58%.

With `O=c1[nH]cc(F)c(=O)[nH]1` + COC1C(OC(N)=O)C(O)C(Oc2ccc3c(O)c(NC(=O)c4ccc(O)c(CC=C(C)C)c4)c(=O)oc3c2C)OC1(C)C the IC50 (second compound 0.0316 µM) was 463 nM, the IC50 (second compound 0.1 µM) was 403 nM and the IC50 (second compound 0.316 µM) was 370 nM. It also gave an IC50 (second compound 1 µM) of 489 nM, an IC50 (second compound 3.16 µM) of 518 nM and an IC50 (second compound 10 µM) of 431 nM. For the same compound, the viability, T/C [1] was 101%, the viability, T/C [2] was 119% and the viability, T/C [3] was 59.9%. For the same compound, the viability, T/C [4] was 40.1%, the viability, T/C [5] was 25.9% and the viability, T/C [6] was 23.6%. The viability, T/C [7] was 107%, the viability, T/C [8] was 107% and the viability, T/C [9] was 55%. It also gave a viability, T/C [10] of 34.5%, a viability, T/C [11] of 28% and a viability, T/C [12] of 22.3%. For the same compound, the viability, T/C [13] was 107%, the viability, T/C [14] was 114% and the viability, T/C [15] was 53.5%. It also gave a viability, T/C [16] of 35.1%, a viability, T/C [17] of 26.3% and a viability, T/C [18] of 23.6%. The viability, T/C [19] was 118%, the viability, T/C [20] was 100% and the viability, T/C [21] was 59.2%. The viability, T/C [22] was 34%, the viability, T/C [23] was 26.7% and the viability, T/C [24] was 21.5%. It also gave a viability, T/C [25] of 98.8%, a viability, T/C [26] of 93.4% and a viability, T/C [27] of 58.4%. It also gave a viability, T/C [28] of 37.5%, a viability, T/C [29] of 28.2% and a viability, T/C [30] of 22%. It also gave a viability, T/C [31] of 117%, a viability, T/C [32] of 101% and a viability, T/C [33] of 54.7%. For the same compound, the viability, T/C [34] was 35.3%, the viability, T/C [35] was 26.2% and the viability, T/C [36] was 23.4%.

Reference: PubChem BioAssay AID1963838 (Molecular Pharmacology Branch, DTP, NCI, 2024)
